Measurements reported in patent publication US11800867B2, “Methods of repelling biting arthropods, reducing pathogen spread and treating arthropod infestation” (priority 2016, dated 2023).
Values joined by “and” are separate entries in the source; they are usually repeats but may differ in a detail not shown here. Identical values can stand only once.

How the values were obtained:
Ae. aegypti mosquitoes = assay: Continuous exposure to treated filter paper, knockdown and mortality (Example 3); format: in vivo, Aedes aegypti; details: 1% nootkatone in ethanol on filter paper
Protocol: In the following example, the effectiveness of a 1% nootkatone composition in killing Ae. aegypti mosquitoes was determined.
A composition of 1% nootkatone formulated in ethanol was added to filter paper, which was then introduced into a Fluon®-coated container. Ten Ae. aegypti mosquitoes were added to the container and observed at 30 min, 1, 4, and 24 hr. Five replicates were performed. […] An untreated population was observed as a negative control.

[1] = tested on: fire ants (Solenopsis invicta); assay: Treated filter paper knockdown (KD) and mortality trial (Example 4); format: in vivo; details: Nootkatone 1% in ethanol on filter paper
Protocol: (§1) A laboratory trial was conducted to assess the efficacy of nootkatone applied to filter paper against aphids (Schizaphis gramium), dust mites (Dermatophagoides sp.), termites (Reticulitermes flavipes), deer ticks (Ixodes scapularis), biting midges (Culicoides sp.), fire ants (Solenopsis invicta), and mosquitoes (Aedes aegypti and Culex), in terms of knockdown (KD) and mortality. One concentration (1% in ethanol) of nootkatone was assessed for most species, but three concentrations (0.25%, 0.5%, and 1% in ethanol) were assessed for mosquitoes. A negative control group, consisting of filter paper treated with ethanol, was also assessed for comparison purposes for each species.
(§2) Test systems were introduced to treated filter paper, allowed to dry, and then introduced into treatment chamber, where treated arthropods were monitored at intervals up to 72 hours. If 100% mortality was obtained prior to 72 hours, the individual study was halted.
Fire ants—5 replicates of 10 insects were tested per treatment. A Petri dish lid 3.54 inches (9 cm) in diameter was inverted and serve as the substrate for a 2.75 inch (7 cm) treated filter paper circle. The small Petri dish bottom was inverted over the paper and had its sides treated with Fluon® to prevent climbing and force exposure with the filter paper. The entire Petri dish was enclosed with two rubber bands.
(§3) Readings were discontinued if treated mortality reaches […], or control mortality exceeds 20%.

[2] = tested on: biting midges (Culicoides sp.); assay: as above; format: in vivo; details: Nootkatone 1% in ethanol on filter paper
Protocol: as §1, §2
Midges and mosquitoes—5 replicates of 10 insects per treatment were tested. Inverted 10 ounce (295 ml) clear plastic cups with a 0.5 inch (1.27 cm) hole burned into the center of the bottom, and with the sides coated with Fluon® was used at the treatment containers. The bottoms of the containers consisted of Petri dish lids 3.54 inches (9.0 cm) in diameter lined with a treated filter paper circle the same diameter. The cup was placed over the filter paper in the lid and both were secured in place using 2 rubber bands. The insects were introduced through the hole in the cup, and a plastic disc was placed over the opening to prevent escapes.
as §3

[3] = tested on: termites (Reticulitermes flavipes); assay: Filter paper choice test of repelling action (Example 6); format: in vivo
Protocol: (§4) An in vitro laboratory trial was required to assess the repelling action of nootkatone applied to filter paper against cat fleas (Ctenocephalides felis), deer ticks (Ixodes scapularis), bed bugs (Cimex lectularius), and termites (Reticulitermes flavipes) in a choice test design.
(§5) The sponsor provided a sample of nootkatone (98%), which was diluted in ethanol to a 0.5% concentration. The treatment was applied to filter paper at a rate of 1 mL for a 9 cm filter paper disc, and a rate of 1.9 mL for a 15 cm filter paper disc. A negative control group, consisting of untreated filter paper, was also assessed for comparison purposes.
Termites: One long glass tube with screened ends (to provide ventilation) was used for each test container. Test containers were placed into a larger container to prevent escapes, and were kept in darkness and at high humidity for the duration of the experiment. Treated and untreated filter papers were cut into strips and fitted inside the glass tubes. Treated replicates received one treated and one untreated paper; negative control replicates received two untreated strips. The two paper strips were pushed end to end to form one continuous strip, leaving a 2 mm gap running the entire length of the tube for viewing termite activity.
Termites: Termites were placed in the center of each test container and left to distribute undisturbed for 24 hours. At the end of the exposure period, the distribution (on or under each filter paper) of termites was recorded.
The number of insects in each location was converted to a percentage, for which the average and standard error were calculated across all five replicates.
Percent repellency was calculated with the following formula: % repellency=(1−((t/T)/(c/C)))*100 • Where t=number of insects on treated side of treated arena • T=total number of insects in treated arena • c=average number of insects on right side of untreated arenas • C=average total number of insects in untreated arenas

[4] = tested on: deer ticks (Ixodes scapularis); assay: as above; format: in vivo
Protocol: as §4, §5
Deer ticks: Treated and untreated filter papers were cut in half and fitted into the bottom of a 9 cm petri dish. Treated replicates received one half treated and one half untreated filter paper; negative control replicates received untreated filter paper only. The petri dish arenas were then placed on their sides, with the control halves positioned at the lower half and the treated half at the upper half.
Deer ticks: Ticks were introduced, one at a time, to the bottom half of the control (untreated) arena, and monitored to see how long it took them to get to the upper “treated” side of the arena. Ticks were allowed up to three minutes to cross into the upper area of each arena. […] Once a tick had crossed into the upper side of the control arena, it was gently picked up with forceps and placed in the bottom half of the treated arena, and the procedure repeated. Ticks were considered “not repelled” if they crossed onto the treated side of the treated arena within three minutes.
The number of repelled ticks for each replicate was added together, and the average and standard error were calculated across all five replicates. The numbers were divided by the total number of ticks per replicate to obtain the percent repellency.

[5] = 24 hours post introduction, listed as nootkatone
[6] = 0.5% nootkatone in ethanol on filter paper
[7] = 0.5% nootkatone in ethanol, 24 Hours post introduction, Replicates 1-3
[8] = 0.5% nootkatone in ethanol, 10 ticks per replicate, three minutes, Replicates 1-5

Compound: C=C(C)[C@@H]1CCC2=CC(=O)C[C@@H](C)[C@]2(C)C1 [Nootkatone, nootkatone]
- Knockdown rate after 1 hr relative to 30 min (Ae. aegypti mosquitoes; after 1 hr): more than doubled
- Knockdown rate (Ae. aegypti mosquitoes; after 4 hr): greater than 90%
- Exposure time after which mosquitoes begin to be affected (Ae. aegypti mosquitoes; continuous exposure): 30 min
- Exposure time at which knockdown was complete (FIG. 5) (Ae. aegypti mosquitoes; continuous exposure): < 24 h
- Average percent of mosquitoes affected (FIG. 3) (Ae. aegypti mosquitoes; continuous exposure 24 hr): All mosquitoes were affected
- Time required for greater than 90% killing [1]: 24 h
- Means Affected ([1]; 30 minutes post introduction): 0.0%
- Means Dead ([1]; 30 minutes post introduction): 0.0%
- Means KD ([1]; 30 minutes post introduction): 0.0%
- Means Affected ([1]; 1 hour post introduction): 0.0%
- Means Dead ([1]; 1 hour post introduction): 0.0%
- Means KD ([1]; 1 hour post introduction): 0.0%
- Means Affected ([1]; 4 hours post introduction): 22.0%
- Means Dead ([1]; 4 hours post introduction): 0.0%
- Means KD ([1]; 4 hours post introduction): 22.0%
- Means Affected ([1]; 24 hours post introduction): 100.0%
- Means Dead ([1]; 24 hours post introduction): 100%
- Means KD ([1]; 24 hours post introduction): 0.0%
- Means Dead [1, 5]: 100%
- Time required for greater than 90% killing [2]: 24 h
- Means Affected ([2]; 30 minutes post introduction): 100.0%
- Means Dead ([2]; 30 minutes post introduction): 0.0%
- Means KD ([2]; 30 minutes post introduction): 100.0%
- Means Affected ([2]; 1 hour post introduction): 100.0%
- Means Dead ([2]; 1 hour post introduction): 1.8%
- Means KD ([2]; 1 hour post introduction): 98.2%
- Means Affected ([2]; 4 hours post introduction): 100.0%
- Means Dead ([2]; 4 hours post introduction): 78.7%
- Means KD ([2]; 4 hours post introduction): 21.3%
- Means Affected ([2]; 24 hours post introduction): 100.0%
- Means Dead ([2]; 24 hours post introduction): 100%
- Means KD ([2]; 24 hours post introduction): 0.0%
- Means Dead [2, 5]: 100%
- Repellency (conclusion in words) [3, 6]: highly repellent
- Raw data: number of termites on Treated strip of treated tube, per replicate [3, 7]: 0
- Raw data: number of termites on Untreated strip of treated tube, per replicate [3, 7]: 10
- Calculated percent repellency (average ± SE) ([3]; nootkatone (98%) 0.5% in ethanol on filter paper strips, one treated, one untreated, 24 hours): 100.0 ± 0.0%
- Repellency (conclusion in words) [4, 6]: highly repellent
- Raw data: number of ticks Not repelled, per replicate [4, 8]: 0 (3×) and 1 (2×)
- Raw data: number of ticks Repelled, per replicate [4, 8]: 9 (2×) and 10 (3×)
- Calculated percent repellency (average ± SE) ([4]; nootkatone (98%) 0.5% in ethanol on filter paper, treated upper half, up to three minutes to cross): 96.0 ± 2.4%
